In ChEMBL document CHEMBL1201862, “PubChem BioAssay data set” (2004):
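Values below derive from 48-hour exposures of cells grown in 96-well plates, with endpoints linearly interpolated between the two concentrations bracketing the appropriate inhibition level. At the GI50, growth is halved.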 Activity calls are given as the source filed them. No stated cut-off is given here; in the data, active = GI50 up to about 1.1 µM and inactive = higher.

How the values were obtained:
Assay in all cases: NCI anticancer screen, dose series, 48 h
A549 = tested on: A549
CAKI-1 = tested on: CAKI-1
CCRF-CEM = tested on: CCRF-CEM
EKVX = tested on: EKVX
HCC 2998 = tested on: HCC 2998
HT-29 = tested on: HT-29
KM12 = tested on: KM12
LOX IMVI = tested on: LOX IMVI
MOLT-4 = tested on: MOLT-4
NCI-H460 = tested on: NCI-H460
OVCAR-3 = tested on: OVCAR-3
OVCAR-4 = tested on: OVCAR-4
OVCAR-5 = tested on: OVCAR-5
OVCAR-8 = tested on: OVCAR-8
SF-539 = tested on: SF-539
SK-MEL-28 = tested on: SK-MEL-28
SN12C = tested on: SN12C
SNB-75 = tested on: SNB-75
UACC-257 = tested on: UACC-257
UO-31 = tested on: UO-31

Measured: GI50

CC(C(=O)O)c1cnn(-c2ccccc2)c1-n1cccc1 (stereo not given)
inactive: A549 > 100 µM | CAKI-1 > 100 µM | CCRF-CEM > 100 µM | EKVX > 100 µM | HCC 2998 > 100 µM | HT-29 > 100 µM | KM12 > 100 µM | LOX IMVI > 100 µM | MOLT-4 > 100 µM | NCI-H460 > 100 µM | OVCAR-3 > 63.7 µM | OVCAR-4 > 100 µM | OVCAR-5 > 100 µM | OVCAR-8 > 100 µM | SF-539 > 100 µM | SK-MEL-28 > 100 µM | SN12C > 100 µM | SNB-75 > 100 µM | UACC-257 > 100 µM | UO-31 > 100 µM

CC1=NN(C(=O)c2ccc(C)cc2)C(=O)C1/N=N/c1ccccc1C(=O)O (stereo not given)
inactive: A549 > 100 µM | CAKI-1 > 100 µM | CCRF-CEM 53.7 µM | EKVX > 100 µM | HCC 2998 > 100 µM | HT-29 > 32.1 µM | KM12 > 100 µM | LOX IMVI > 100 µM | MOLT-4 > 73.8 µM | NCI-H460 > 100 µM | OVCAR-3 > 89.1 µM | OVCAR-4 > 100 µM | OVCAR-5 > 100 µM | OVCAR-8 > 74.5 µM | SF-539 > 100 µM | SK-MEL-28 > 100 µM | SN12C > 100 µM | SNB-75 > 37.7 µM | UACC-257 > 100 µM | UO-31 > 100 µM

CCOC(=O)C1=C(C)N(C2OC(COC(C)=O)C(OC(C)=O)C(OC(C)=O)C2OC(C)=O)C(=O)NC1c1ccccc1 (stereo not given)
inactive: A549 > 100 µM | CAKI-1 83.9 µM | CCRF-CEM 44.9 µM | EKVX > 100 µM | HCC 2998 > 100 µM | HT-29 > 100 µM | KM12 > 100 µM | LOX IMVI > 100 µM | MOLT-4 99.1 µM | NCI-H460 > 100 µM | OVCAR-3 > 100 µM | OVCAR-4 > 100 µM | OVCAR-5 > 100 µM | OVCAR-8 > 100 µM | SF-539 > 100 µM | SK-MEL-28 > 100 µM | SN12C > 100 µM | SNB-75 55 µM | UACC-257 > 100 µM | UO-31 > 100 µM

COc1cc(C(O)(CC#N)c2cc3c(cc2Br)OCO3)cc(OC)c1OC (stereo not given)
inactive: A549 22.9 µM | CAKI-1 29.1 µM | CCRF-CEM 43.2 µM | EKVX 54.1 µM | HCC 2998 24 µM | HT-29 25.4 µM | KM12 21 µM | LOX IMVI 31.3 µM | MOLT-4 56 µM | NCI-H460 18.8 µM | OVCAR-3 18 µM | OVCAR-4 > 100 µM | OVCAR-5 17.4 µM | OVCAR-8 44.9 µM | SF-539 8.05 µM | SK-MEL-28 23.4 µM | SN12C > 100 µM | SNB-75 65.3 µM | UACC-257 27.9 µM | UO-31 57.5 µM

O=C1C(CO)=C[C@H](O)[C@H]2O[C@@H]12
inactive: A549 318 µM | CAKI-1 253 µM | CCRF-CEM 74.8 µM | EKVX 121 µM | HCC 2998 311 µM | HT-29 260 µM | KM12 83.9 µM | LOX IMVI 136 µM | MOLT-4 133 µM | NCI-H460 199 µM | OVCAR-3 177 µM | OVCAR-4 130 µM | OVCAR-5 264 µM | OVCAR-8 137 µM | SF-539 242 µM | SK-MEL-28 136 µM | SN12C 128 µM | SNB-75 335 µM | UACC-257 158 µM | UO-31 267 µM
